These results are taken from ChEMBL document CHEMBL5442219.

Each structure is given as a SMILES string.

Common to all, as to conditions: Compound concentration 10 µM
Assay [1] has as its target T1, Alpha-1A adrenergic receptor (Homo sapiens) (UniProt P35348).
T1 sequence (whole entry): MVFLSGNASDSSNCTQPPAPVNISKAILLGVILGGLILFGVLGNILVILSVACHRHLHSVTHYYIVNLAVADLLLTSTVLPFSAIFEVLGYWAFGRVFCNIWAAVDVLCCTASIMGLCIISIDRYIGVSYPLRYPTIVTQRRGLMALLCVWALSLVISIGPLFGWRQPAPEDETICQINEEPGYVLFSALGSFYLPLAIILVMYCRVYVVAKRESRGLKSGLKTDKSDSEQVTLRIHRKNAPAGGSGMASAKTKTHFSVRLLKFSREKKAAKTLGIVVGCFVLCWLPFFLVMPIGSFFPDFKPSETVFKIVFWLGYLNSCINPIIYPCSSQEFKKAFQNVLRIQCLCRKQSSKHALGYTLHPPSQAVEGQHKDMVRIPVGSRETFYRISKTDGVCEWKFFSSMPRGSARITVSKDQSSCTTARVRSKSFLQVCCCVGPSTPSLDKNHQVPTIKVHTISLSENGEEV
Description: PDSP Primary Binding target: ADRA1A - Compounds are tested at 10 uM concentration, plate are incubated at room temperature in the dark for 90 minutes. Reaction are stopped by vacuum filtration onto 0.3% polyethyleneimine soaked filter mats using Filtermate harvester. Scintilation cocktail is then melted onto microwave-dried filters on a hot plate and the radio activity is counted in Microbia counter.

Assay [2] has as its target T2, Alpha-1D adrenergic receptor (Homo sapiens) (UniProt P25100).
T2 sequence (whole entry): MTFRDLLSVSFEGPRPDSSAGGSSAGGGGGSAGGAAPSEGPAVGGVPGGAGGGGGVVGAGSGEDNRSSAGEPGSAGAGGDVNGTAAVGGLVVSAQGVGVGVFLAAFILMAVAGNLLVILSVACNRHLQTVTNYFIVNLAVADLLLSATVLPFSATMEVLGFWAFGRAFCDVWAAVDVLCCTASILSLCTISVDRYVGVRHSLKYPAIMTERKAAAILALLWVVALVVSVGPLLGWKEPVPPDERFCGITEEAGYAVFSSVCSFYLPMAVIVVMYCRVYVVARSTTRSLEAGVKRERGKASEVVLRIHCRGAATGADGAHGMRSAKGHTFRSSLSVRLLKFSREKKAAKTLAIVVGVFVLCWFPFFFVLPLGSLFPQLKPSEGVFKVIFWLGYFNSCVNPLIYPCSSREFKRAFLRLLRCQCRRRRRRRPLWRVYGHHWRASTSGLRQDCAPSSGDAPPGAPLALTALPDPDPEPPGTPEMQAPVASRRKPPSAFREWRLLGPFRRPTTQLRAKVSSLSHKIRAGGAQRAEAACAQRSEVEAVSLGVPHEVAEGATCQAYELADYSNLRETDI
Description: PDSP Primary Binding target: ADRA1D - Compounds are tested at 10 uM concentration, plate are incubated at room temperature in the dark for 90 minutes. Reaction are stopped by vacuum filtration onto 0.3% polyethyleneimine soaked filter mats using Filtermate harvester. Scintilation cocktail is then melted onto microwave-dried filters on a hot plate and the radio activity is counted in Microbia counter.

For assay [3], the target named is Beta-1 adrenergic receptor (Homo sapiens) (UniProt P08588).
Description: PDSP Primary Binding target: ADRB1 - Compounds are tested at 10 uM concentration, plate are incubated at room temperature in the dark for 90 minutes. Reaction are stopped by vacuum filtration onto 0.3% polyethyleneimine soaked filter mats using Filtermate harvester. Scintilation cocktail is then melted onto microwave-dried filters on a hot plate and the radio activity is counted in Microbia counter.
The target of assay [4] is T3, Muscarinic acetylcholine receptor M5 (Homo sapiens) (UniProt P08912).
T3 sequence (whole entry): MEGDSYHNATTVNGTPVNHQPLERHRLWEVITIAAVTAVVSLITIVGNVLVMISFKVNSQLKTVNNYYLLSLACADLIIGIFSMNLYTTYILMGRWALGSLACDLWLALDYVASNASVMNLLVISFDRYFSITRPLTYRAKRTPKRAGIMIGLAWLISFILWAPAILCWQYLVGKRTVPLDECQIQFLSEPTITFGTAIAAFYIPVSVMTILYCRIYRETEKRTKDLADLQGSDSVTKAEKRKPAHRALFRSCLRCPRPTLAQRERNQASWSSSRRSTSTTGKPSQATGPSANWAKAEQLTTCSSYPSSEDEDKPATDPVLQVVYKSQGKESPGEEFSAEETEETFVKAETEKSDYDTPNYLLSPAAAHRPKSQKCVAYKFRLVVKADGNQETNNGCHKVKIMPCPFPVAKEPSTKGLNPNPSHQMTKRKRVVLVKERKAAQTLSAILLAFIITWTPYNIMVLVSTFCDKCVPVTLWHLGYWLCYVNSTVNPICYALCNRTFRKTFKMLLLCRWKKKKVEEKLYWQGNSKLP
Description: PDSP Primary Binding target: CHRM5 - Compounds are tested at 10 uM concentration, plate are incubated at room temperature in the dark for 90 minutes. Reaction are stopped by vacuum filtration onto 0.3% polyethyleneimine soaked filter mats using Filtermate harvester. Scintilation cocktail is then melted onto microwave-dried filters on a hot plate and the radio activity is counted in Microbia counter.

The target in assay [5] is Histamine H1 receptor (Homo sapiens) (UniProt P35367).
Description: PDSP Primary Binding target: HRH1 - Compounds are tested at 10 uM concentration, plate are incubated at room temperature in the dark for 90 minutes. Reaction are stopped by vacuum filtration onto 0.3% polyethyleneimine soaked filter mats using Filtermate harvester. Scintilation cocktail is then melted onto microwave-dried filters on a hot plate and the radio activity is counted in Microbia counter.
For assay [6], the target named is Histamine H3 receptor (Homo sapiens) (UniProt Q9Y5N1).
Description: PDSP Primary Binding target: HRH3 - Compounds are tested at 10 uM concentration, plate are incubated at room temperature in the dark for 90 minutes. Reaction are stopped by vacuum filtration onto 0.3% polyethyleneimine soaked filter mats using Filtermate harvester. Scintilation cocktail is then melted onto microwave-dried filters on a hot plate and the radio activity is counted in Microbia counter.
Assay [7] addresses T4, 5-hydroxytryptamine receptor 1A (Homo sapiens) (UniProt P08908).
T4 sequence (whole entry): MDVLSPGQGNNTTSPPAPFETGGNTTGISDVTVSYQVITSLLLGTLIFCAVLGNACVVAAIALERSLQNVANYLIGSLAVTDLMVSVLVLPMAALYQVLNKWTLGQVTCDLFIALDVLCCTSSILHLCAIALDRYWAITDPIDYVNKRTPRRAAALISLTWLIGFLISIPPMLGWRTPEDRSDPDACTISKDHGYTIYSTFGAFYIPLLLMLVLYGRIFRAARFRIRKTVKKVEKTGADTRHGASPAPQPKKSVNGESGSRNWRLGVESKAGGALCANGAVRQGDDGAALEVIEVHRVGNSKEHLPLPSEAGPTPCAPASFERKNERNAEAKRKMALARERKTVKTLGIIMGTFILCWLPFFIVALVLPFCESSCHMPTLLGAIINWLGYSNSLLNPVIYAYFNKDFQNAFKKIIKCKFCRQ
Description: PDSP Primary Binding target: HTR1A - Compounds are tested at 10 uM concentration, plate are incubated at room temperature in the dark for 90 minutes. Reaction are stopped by vacuum filtration onto 0.3% polyethyleneimine soaked filter mats using Filtermate harvester. Scintilation cocktail is then melted onto microwave-dried filters on a hot plate and the radio activity is counted in Microbia counter.

For assay [8], the target named is 5-hydroxytryptamine receptor 1B (Homo sapiens) (UniProt P28222).
Description: PDSP Primary Binding target: HTR1B - Compounds are tested at 10 uM concentration, plate are incubated at room temperature in the dark for 90 minutes. Reaction are stopped by vacuum filtration onto 0.3% polyethyleneimine soaked filter mats using Filtermate harvester. Scintilation cocktail is then melted onto microwave-dried filters on a hot plate and the radio activity is counted in Microbia counter.
The target of assay [9] is 5-hydroxytryptamine receptor 1E (Homo sapiens) (UniProt P28566).
Description: PDSP Primary Binding target: HTR1E - Compounds are tested at 10 uM concentration, plate are incubated at room temperature in the dark for 90 minutes. Reaction are stopped by vacuum filtration onto 0.3% polyethyleneimine soaked filter mats using Filtermate harvester. Scintilation cocktail is then melted onto microwave-dried filters on a hot plate and the radio activity is counted in Microbia counter.
Assay [10] addresses 5-hydroxytryptamine receptor 2A (Homo sapiens) (UniProt P28223).
Description: PDSP Primary Binding target: HTR2A - Compounds are tested at 10 uM concentration, plate are incubated at room temperature in the dark for 90 minutes. Reaction are stopped by vacuum filtration onto 0.3% polyethyleneimine soaked filter mats using Filtermate harvester. Scintilation cocktail is then melted onto microwave-dried filters on a hot plate and the radio activity is counted in Microbia counter.
In assay [11] the target is Mu-type opioid receptor (Homo sapiens) (UniProt P35372).
Description: PDSP Primary Binding target: OPRM1 - Compounds are tested at 10 uM concentration, plate are incubated at room temperature in the dark for 90 minutes. Reaction are stopped by vacuum filtration onto 0.3% polyethyleneimine soaked filter mats using Filtermate harvester. Scintilation cocktail is then melted onto microwave-dried filters on a hot plate and the radio activity is counted in Microbia counter.
For assay [12], the target named is Sodium-dependent dopamine transporter (Homo sapiens) (UniProt Q01959).
Description: PDSP Primary Binding target: SLC6A3 - Compounds are tested at 10 uM concentration, plate are incubated at room temperature in the dark for 90 minutes. Reaction are stopped by vacuum filtration onto 0.3% polyethyleneimine soaked filter mats using Filtermate harvester. Scintilation cocktail is then melted onto microwave-dried filters on a hot plate and the radio activity is counted in Microbia counter.
For assay [13], the target named is Sodium-dependent serotonin transporter (Homo sapiens) (UniProt P31645).
Description: PDSP Primary Binding target: SLC6A4 - Compounds are tested at 10 uM concentration, plate are incubated at room temperature in the dark for 90 minutes. Reaction are stopped by vacuum filtration onto 0.3% polyethyleneimine soaked filter mats using Filtermate harvester. Scintilation cocktail is then melted onto microwave-dried filters on a hot plate and the radio activity is counted in Microbia counter.
Assay [14] addresses Histamine H2 receptor (Homo sapiens) (UniProt P25021).
Description: PDSP Primary Binding target: HRH2 - Compounds are tested at 10 uM concentration, plate are incubated at room temperature in the dark for 90 minutes. Reaction are stopped by vacuum filtration onto 0.3% polyethyleneimine soaked filter mats using Filtermate harvester. Scintilation cocktail is then melted onto microwave-dried filters on a hot plate and the radio activity is counted in Microbia counter.
The target in assay [15] is 5-hydroxytryptamine receptor 1D (Homo sapiens) (UniProt P28221).
Description: PDSP Primary Binding target: HTR1D - Compounds are tested at 10 uM concentration, plate are incubated at room temperature in the dark for 90 minutes. Reaction are stopped by vacuum filtration onto 0.3% polyethyleneimine soaked filter mats using Filtermate harvester. Scintilation cocktail is then melted onto microwave-dried filters on a hot plate and the radio activity is counted in Microbia counter.
Assay [16] has as its target 5-hydroxytryptamine receptor 5A (Homo sapiens) (UniProt P47898).
Description: PDSP Primary Binding target: HTR5A - Compounds are tested at 10 uM concentration, plate are incubated at room temperature in the dark for 90 minutes. Reaction are stopped by vacuum filtration onto 0.3% polyethyleneimine soaked filter mats using Filtermate harvester. Scintilation cocktail is then melted onto microwave-dried filters on a hot plate and the radio activity is counted in Microbia counter.

Chain of 5-hydroxytryptamine receptor 5A (Homo sapiens) (P47898 whole entry): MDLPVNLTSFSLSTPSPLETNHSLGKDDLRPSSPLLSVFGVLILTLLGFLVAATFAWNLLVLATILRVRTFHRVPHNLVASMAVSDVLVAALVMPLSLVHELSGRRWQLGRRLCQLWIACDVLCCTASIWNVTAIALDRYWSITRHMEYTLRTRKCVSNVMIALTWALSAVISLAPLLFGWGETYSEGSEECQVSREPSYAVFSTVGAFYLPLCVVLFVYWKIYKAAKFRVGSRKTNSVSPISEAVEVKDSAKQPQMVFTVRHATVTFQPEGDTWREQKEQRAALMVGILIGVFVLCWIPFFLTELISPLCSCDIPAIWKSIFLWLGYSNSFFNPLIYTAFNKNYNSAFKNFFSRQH
Chain of Histamine H3 receptor (Homo sapiens) (Q9Y5N1 whole entry): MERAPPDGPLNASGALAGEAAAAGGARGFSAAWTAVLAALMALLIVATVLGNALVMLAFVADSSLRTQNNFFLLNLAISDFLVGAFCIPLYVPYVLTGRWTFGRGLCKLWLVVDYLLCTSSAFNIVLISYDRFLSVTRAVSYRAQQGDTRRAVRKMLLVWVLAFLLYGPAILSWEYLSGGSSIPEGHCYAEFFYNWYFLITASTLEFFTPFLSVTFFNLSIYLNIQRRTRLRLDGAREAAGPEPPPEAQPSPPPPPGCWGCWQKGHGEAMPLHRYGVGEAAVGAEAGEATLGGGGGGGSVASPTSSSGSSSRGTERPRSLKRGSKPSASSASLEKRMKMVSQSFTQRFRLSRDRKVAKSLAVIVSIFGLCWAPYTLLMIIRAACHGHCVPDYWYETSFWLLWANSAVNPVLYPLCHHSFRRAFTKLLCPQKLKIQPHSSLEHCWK
Chain of Histamine H2 receptor (Homo sapiens) (P25021 whole entry): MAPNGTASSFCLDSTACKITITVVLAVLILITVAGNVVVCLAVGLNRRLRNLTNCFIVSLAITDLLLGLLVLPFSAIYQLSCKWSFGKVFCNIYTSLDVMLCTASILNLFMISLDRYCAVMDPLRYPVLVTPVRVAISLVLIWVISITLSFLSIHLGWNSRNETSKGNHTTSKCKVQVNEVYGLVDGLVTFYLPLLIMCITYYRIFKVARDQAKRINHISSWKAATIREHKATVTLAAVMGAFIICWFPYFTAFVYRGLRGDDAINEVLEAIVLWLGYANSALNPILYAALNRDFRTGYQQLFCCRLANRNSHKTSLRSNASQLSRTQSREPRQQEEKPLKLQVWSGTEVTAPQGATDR
Chain of Beta-1 adrenergic receptor (Homo sapiens) (P08588 whole entry, looked up): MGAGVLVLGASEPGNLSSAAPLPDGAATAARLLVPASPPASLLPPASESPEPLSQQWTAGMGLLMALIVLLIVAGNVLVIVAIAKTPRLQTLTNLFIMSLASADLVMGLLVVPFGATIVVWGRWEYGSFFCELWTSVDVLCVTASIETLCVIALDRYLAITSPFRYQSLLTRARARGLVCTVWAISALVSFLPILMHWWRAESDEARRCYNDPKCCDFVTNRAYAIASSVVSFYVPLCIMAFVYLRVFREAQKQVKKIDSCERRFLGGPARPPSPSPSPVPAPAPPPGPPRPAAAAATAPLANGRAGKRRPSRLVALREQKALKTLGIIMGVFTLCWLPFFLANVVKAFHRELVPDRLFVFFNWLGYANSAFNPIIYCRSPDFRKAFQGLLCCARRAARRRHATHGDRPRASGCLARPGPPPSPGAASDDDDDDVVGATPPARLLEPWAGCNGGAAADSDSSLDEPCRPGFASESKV
Chain of Histamine H1 receptor (Homo sapiens) (P35367 whole entry): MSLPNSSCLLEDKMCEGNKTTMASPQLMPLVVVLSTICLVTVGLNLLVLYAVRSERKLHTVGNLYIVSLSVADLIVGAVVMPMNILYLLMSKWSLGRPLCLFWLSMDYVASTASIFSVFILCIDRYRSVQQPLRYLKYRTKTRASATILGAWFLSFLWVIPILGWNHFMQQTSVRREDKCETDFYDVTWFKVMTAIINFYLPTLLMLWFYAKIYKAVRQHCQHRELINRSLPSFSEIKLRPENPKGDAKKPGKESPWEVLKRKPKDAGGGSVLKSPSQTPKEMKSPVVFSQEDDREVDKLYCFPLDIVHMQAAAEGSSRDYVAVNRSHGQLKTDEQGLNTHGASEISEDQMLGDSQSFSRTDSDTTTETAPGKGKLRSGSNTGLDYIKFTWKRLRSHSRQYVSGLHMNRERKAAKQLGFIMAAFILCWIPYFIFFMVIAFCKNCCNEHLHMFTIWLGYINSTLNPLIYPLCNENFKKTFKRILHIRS
Chain of 5-hydroxytryptamine receptor 1B (Homo sapiens) (P28222 whole entry): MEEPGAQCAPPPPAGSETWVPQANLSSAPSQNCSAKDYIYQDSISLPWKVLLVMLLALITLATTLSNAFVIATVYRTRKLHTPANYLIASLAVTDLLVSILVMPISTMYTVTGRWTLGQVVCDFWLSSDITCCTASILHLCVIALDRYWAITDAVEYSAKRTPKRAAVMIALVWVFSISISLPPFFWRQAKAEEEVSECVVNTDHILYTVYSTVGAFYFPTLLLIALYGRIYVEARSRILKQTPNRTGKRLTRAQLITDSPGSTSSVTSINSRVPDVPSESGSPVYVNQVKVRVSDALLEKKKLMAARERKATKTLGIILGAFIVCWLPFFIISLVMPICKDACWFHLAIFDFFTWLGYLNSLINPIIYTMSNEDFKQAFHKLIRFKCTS
Chain of 5-hydroxytryptamine receptor 2A (Homo sapiens) (P28223 whole entry): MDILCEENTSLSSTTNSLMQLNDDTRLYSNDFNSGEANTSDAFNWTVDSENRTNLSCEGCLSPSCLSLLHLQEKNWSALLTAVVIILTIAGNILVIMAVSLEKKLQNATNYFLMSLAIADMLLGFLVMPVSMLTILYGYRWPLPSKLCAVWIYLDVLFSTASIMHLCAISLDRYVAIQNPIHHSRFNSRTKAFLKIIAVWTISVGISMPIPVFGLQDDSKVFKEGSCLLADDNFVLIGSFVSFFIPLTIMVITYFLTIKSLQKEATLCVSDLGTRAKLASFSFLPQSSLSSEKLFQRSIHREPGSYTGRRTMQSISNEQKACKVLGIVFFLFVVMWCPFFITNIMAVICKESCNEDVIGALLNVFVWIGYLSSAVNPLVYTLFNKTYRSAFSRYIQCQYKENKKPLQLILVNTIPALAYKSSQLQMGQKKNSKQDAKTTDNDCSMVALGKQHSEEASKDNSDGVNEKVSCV
Chain of 5-hydroxytryptamine receptor 1D (Homo sapiens) (P28221 whole entry): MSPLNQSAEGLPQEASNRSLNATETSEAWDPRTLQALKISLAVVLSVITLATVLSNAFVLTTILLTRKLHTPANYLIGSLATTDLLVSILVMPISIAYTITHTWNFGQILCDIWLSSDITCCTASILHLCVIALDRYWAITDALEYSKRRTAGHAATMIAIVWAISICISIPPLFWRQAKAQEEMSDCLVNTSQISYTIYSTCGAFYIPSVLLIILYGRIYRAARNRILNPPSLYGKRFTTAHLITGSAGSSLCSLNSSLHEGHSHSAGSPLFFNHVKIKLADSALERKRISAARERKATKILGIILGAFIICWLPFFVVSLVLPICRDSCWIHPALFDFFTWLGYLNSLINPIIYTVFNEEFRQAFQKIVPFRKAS
Chain of Sodium-dependent serotonin transporter (Homo sapiens) (P31645 whole entry, looked up): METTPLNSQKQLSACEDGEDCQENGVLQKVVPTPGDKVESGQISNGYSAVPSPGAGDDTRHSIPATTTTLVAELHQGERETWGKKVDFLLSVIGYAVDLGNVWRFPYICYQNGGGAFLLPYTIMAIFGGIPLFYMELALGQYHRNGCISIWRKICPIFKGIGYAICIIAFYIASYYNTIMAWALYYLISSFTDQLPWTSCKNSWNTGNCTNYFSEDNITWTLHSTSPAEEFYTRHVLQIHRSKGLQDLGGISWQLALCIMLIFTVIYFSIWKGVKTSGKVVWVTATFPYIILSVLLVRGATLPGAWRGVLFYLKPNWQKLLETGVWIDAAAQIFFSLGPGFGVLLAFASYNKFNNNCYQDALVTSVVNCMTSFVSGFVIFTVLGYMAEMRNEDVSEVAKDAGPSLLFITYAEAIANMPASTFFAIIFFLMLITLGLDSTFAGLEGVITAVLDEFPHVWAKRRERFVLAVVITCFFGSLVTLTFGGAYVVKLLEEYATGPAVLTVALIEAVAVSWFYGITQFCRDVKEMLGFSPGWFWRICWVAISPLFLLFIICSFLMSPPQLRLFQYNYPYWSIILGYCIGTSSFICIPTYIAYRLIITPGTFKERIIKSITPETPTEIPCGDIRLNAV
Chain of Sodium-dependent dopamine transporter (Homo sapiens) (Q01959 whole entry): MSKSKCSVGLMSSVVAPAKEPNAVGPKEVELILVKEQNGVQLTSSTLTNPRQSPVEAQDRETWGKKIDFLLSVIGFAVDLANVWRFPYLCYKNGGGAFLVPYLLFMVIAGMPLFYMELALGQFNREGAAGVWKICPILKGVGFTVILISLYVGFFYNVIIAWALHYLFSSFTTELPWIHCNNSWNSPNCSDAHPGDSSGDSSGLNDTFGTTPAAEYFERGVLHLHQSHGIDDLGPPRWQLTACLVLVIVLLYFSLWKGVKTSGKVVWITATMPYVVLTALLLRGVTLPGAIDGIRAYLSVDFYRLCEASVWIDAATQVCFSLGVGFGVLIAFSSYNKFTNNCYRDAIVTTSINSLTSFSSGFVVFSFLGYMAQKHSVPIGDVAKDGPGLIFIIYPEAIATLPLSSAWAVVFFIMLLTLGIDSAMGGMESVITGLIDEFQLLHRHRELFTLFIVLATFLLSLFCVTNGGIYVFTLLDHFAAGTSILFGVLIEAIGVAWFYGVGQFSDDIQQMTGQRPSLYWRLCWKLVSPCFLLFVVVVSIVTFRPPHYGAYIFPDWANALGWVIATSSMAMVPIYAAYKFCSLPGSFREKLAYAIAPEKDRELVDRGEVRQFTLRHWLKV

What is called inhibition is the relative decrease from the control value, in per cent. Take `C[C@@H](NCCc1ccc(O)cc1)[C@@H](O)c1ccc(O)cc1` (relative stereo): the inhibition in assay [1] is 7.01%; in assay [2] it was 0.11%; in assay [3], 13.4%; in assay [4], -3.49%; in assay [5], 24.2%; in assay [6], 0.59%. Also, the inhibition in [7] is -2.23%; in assay [8], 2.73%; in assay [9], -0.11%; in [10], 5.36%; in assay [11], 51.1%; in assay [12], 39.6%. Further, the inhibition in [13] was 52.3%; in assay [14] it was 8.2%.
`CCCCCNC(=O)NS(=O)(=O)c1cc([N+](=O)[O-])ccc1NC1CCCCC1`: the inhibition was -4% in assay [1]; 6.55% in assay [2]; 18.5% in assay [3]; 12.8% in assay [5]; 11.4% in assay [6]; 1.18% in [7]. Besides, the inhibition in assay [8] is 0.02%; in [15] it was 12.4%; in assay [9] it was 16.8%; in assay [11], 26.7%; in assay [12], 26.3%; in assay [13], 85.4%. Moreover, the inhibition in assay [14] was -2.95%.
As to `Cc1csc2c(N[C@@H](C)CN3CCN(S(=O)(=O)c4ccc(Cl)c(Cl)c4)CC3)ncnc12`, the inhibition in assay [1] is -5.96%; in [2], -3.91%; in [3] it was 26.2%; in assay [4] it was -7.08%; in assay [5] it was 20.4%; in [6], 2.97%. For the same molecule, the inhibition is 17% in assay [7]; -1.11% in assay [8]; -3.07% in [9]; 31% in assay [10]; 14.7% in assay [11]; 44.9% in assay [13]. Moreover, the inhibition in assay [14] was 45.2%.
As to `CSc1ccc(C(=O)N[C@@H]2CCCC[C@@H]2NC(=O)CNC(=O)c2cc(C(F)(F)F)ccc2NC(=O)NC(C)C)cc1`, the inhibition in assay [1] is 7.53%; in assay [3], -9.46%; in [5], 70.6%; in assay [6], 4.61%; in assay [7], 22.6%; in [9], -4.02%. For the same molecule, the inhibition was 9.73% in assay [10]; 5.1% in assay [16]; 28% in [11]; 28.2% in assay [12]; 13.7% in assay [13]; 28.4% in [14].
For `COc1ccc(OC(F)(F)F)cc1CN[C@H]1CCCN[C@H]1c1ccccc1`, the inhibition was 31.1% in assay [1]; 15.1% in assay [2]; 1.65% in assay [3]; 92.9% in [5]; 56.2% in assay [7]; 10% in assay [8]. Besides, the inhibition in assay [15] was -4.51%; in assay [9], 12.4%; in [10], 64.8%; in assay [16], 24.8%; in assay [11], 41.3%; in assay [12] it was 57.6%. For the same molecule, the inhibition in assay [13] was 38.8%; in assay [14] it was 42.3%.
On to `CC[C@@H]1CN2C(=O)N(C)c3nc(-c4ccccc4)[nH]c3C2=N1`, for which the inhibition in [1] is 4.28%; in assay [3], 21.2%; in [5], 27.4%; in assay [6], -5.22%; in [7] it was 12%; in [8], 6.19%. In addition, the inhibition in assay [9] is 23.8%; in assay [10], 53.6%; in assay [16], 14.4%; in assay [11], -6.84%; in assay [12] it was 0.34%; in assay [13], -6.29%. Moreover, the inhibition in assay [14] is 0.52%.
Regarding `CCCCN(CC)c1nc(C)nc2c1c(C)cn2-c1c(C)cc(C)cc1C`, the inhibition in assay [1] is 18.2%; in assay [2], 16.5%; in [3] it was 37.8%; in [5], 12.4%; in assay [6], -0.29%; in [7], -6.24%. For the same molecule, the inhibition in assay [8] was -9.74%; in assay [15], -0.49%; in [9], 18.4%; in assay [10] it was 9.7%; in assay [11] it was 20.1%; in assay [12] it was 36%. Also, the inhibition in assay [13] was 2.76%; in assay [14], 20.9%.
`CCCCN(CCCC)C(=O)CN1C[C@@H](c2ccc3c(c2)OCO3)[C@H](C(=O)O)[C@H]1c1ccc(OC)cc1`: the inhibition in assay [1] is 11.4%; in [3] it was -6.31%; in assay [4], 30.2%; in assay [5] it was 3.82%; in [6], -6.84%; in assay [7] it was -4.59%. Also, the inhibition in [8] was -0.63%; in [15], -9.55%; in assay [9], -0.09%; in [10] it was 13.8%; in [11], 0.92%; in [12] it was 25.8%. The inhibition was -9.18% in assay [13] and 31% in [14].
With `CC(C)(N)C(=O)N[C@H](COCc1ccccc1)C(=O)N1CCC2(CC1)CN(S(C)(=O)=O)c1ccccc12`, the inhibition in assay [1] is 3.39%; in assay [2] it was 9.82%; in assay [3], 30.4%; in assay [4] it was 5.22%; in assay [5] it was 24.6%; in [6], -0.42%. For the same molecule, the inhibition in assay [7] was -5.57%; in assay [15] it was 30.2%; in assay [9], 14.1%; in assay [10], 6.83%; in [11], 12.8%; in [12], 39.5%. For the same molecule, the inhibition is 23.6% in assay [13] and 5.6% in [14].
